Experimental data: the supplement of paper PMC10627819
Values after ≈ are worked out from the molar mass of the structure shown.

Experiments:
[1] = test system: S. pneumoniae D39V; test: fitness (endpoint OD595 vs no drug) (fraction); higher = more growth
How it was run: (§1)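 Each well of a 384-well plate received 30 µl of culture at OD595 0.01, or 55 µl for S. pneumoniae. TSB, LB Lennox or CY served as media at 37 °C. OD595 was taken every 30 min for 14 h and corrected by subtracting the first reading. Fitness is the optical density at stationary-phase entry divided by the robust mean of no-drug controls, capped at 1.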

[2] = test system: S. aureus Newman; test: as above
How it was run: as §1

[3] = test system: S. pneumoniae D39V
[4] = test system: S. aureus DSM 20231
[5] = test system: S. aureus Newman
[6] = test system: B. subtilis 168; test: fitness (endpoint OD595 vs no drug) (fraction); higher = more growth
How it was run: as §1

[7] = test system: S. aureus DSM 20231; test: as above
How it was run: as §1

[8] = test system: B. subtilis 168; test: Bliss interaction score (quartile over a dose matrix) (fitness difference); higher = more antagonism (negative = synergy)
How it was run: (§2)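 Growth in each well was taken as OD595 at entry into stationary phase. Dividing by the plate's robust no-drug mean and capping at 1 gave fitness, and single-drug fitness was inferred from the combination data. The Bliss score, observed minus product-expected fitness, is summarised by quartiles over technical, biological and donor/recipient replicates.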

[9] = test system: S. pneumoniae D39V; test: as above
How it was run: as §2

[10] = test system: S. aureus DSM 20231; test: as above
How it was run: as §2

[11] = test system: S. aureus Newman; test: as above
How it was run: as §2
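For Bliss interaction score (quartile over a dose matrix) in this document: first quartile when negative (synergy) and third quartile when positive (antagonism).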

CC1(C)S[C@@H]2[C@H](NC(=O)Cc3ccccc3)C(=O)N2[C@H]1C(=O)O [Penicillin G]
fitness
Settings	0.0018 µg/mL	0.0035 µg/mL	0.007 µg/mL	0.014 µg/mL	0.0195 µg/mL	0.039 µg/mL	0.078 µg/mL
[1]	0.932	0.944	0.817	0.425	–	–	–
[2]	–	–	–	–	0.928	0.892	0.886

Settings	MIC [µg/mL]
[3]	0.016 (≈ 0.0478 µM)
[4]	0.087 (≈ 0.26 µM)
[5]	0.087 (≈ 0.26 µM)

COc1ccc(C[C@H](N)C(=O)N[C@H]2[C@@H](O)[C@H](n3cnc4c(N(C)C)ncnc43)O[C@@H]2CO)cc1 [Puromycin] + CC1=C\[C@@H](O)CC(=O)Cc2nc(co2)C(=O)N2CCC=C2C(=O)O[C@H](C(C)C)[C@H](C)/C=C/C(=O)NC\C=C\1 [Virginiamycin M1]
Settings	fitness
[1], first compound 1 µg/mL, partner 0.5 µg/mL	0.976
[1], first compound 1 µg/mL, partner 1 µg/mL	0.952
[1], first compound 1 µg/mL, partner 2 µg/mL	0.908
[1], first compound 2 µg/mL, partner 0.5 µg/mL	0.986
[1], first compound 2 µg/mL, partner 1 µg/mL	0.969
[1], first compound 2 µg/mL, partner 2 µg/mL	0.886
[1], first compound 4 µg/mL, partner 0.5 µg/mL	0.847
[1], first compound 4 µg/mL, partner 1 µg/mL	0.783
[1], first compound 4 µg/mL, partner 2 µg/mL	0.804
[2], first compound 0.39 µg/mL, partner 0.0625 µg/mL	0.988
[2], first compound 0.39 µg/mL, partner 0.125 µg/mL	≥ 1
[2], first compound 0.39 µg/mL, partner 0.25 µg/mL	0.999
[2], first compound 0.78 µg/mL, partner 0.0625 µg/mL	0.986
[2], first compound 0.78 µg/mL, partner 0.125 µg/mL	≥ 1
[2], first compound 0.78 µg/mL, partner 0.25 µg/mL	0.984
[2], first compound 1.56 µg/mL, partner 0.0625 µg/mL	0.998
[2], first compound 1.56 µg/mL, partner 0.125 µg/mL	0.977
[2], first compound 1.56 µg/mL, partner 0.25 µg/mL	0.986
[6], first compound 0.39 µg/mL, partner 0.0625 µg/mL	0.975
[6], first compound 0.39 µg/mL, partner 0.125 µg/mL	0.947
[6], first compound 0.39 µg/mL, partner 0.25 µg/mL	≥ 1
[6], first compound 0.78 µg/mL, partner 0.0625 µg/mL	0.94
[6], first compound 0.78 µg/mL, partner 0.125 µg/mL	0.908
[6], first compound 0.78 µg/mL, partner 0.25 µg/mL	0.963
[6], first compound 1.56 µg/mL, partner 0.0625 µg/mL	0.948
[6], first compound 1.56 µg/mL, partner 0.125 µg/mL	0.884
[6], first compound 1.56 µg/mL, partner 0.25 µg/mL	0.87
[7], first compound 0.39 µg/mL, partner 0.0625 µg/mL	0.981
[7], first compound 0.39 µg/mL, partner 0.125 µg/mL	≥ 1
[7], first compound 0.39 µg/mL, partner 0.25 µg/mL	0.926
[7], first compound 0.78 µg/mL, partner 0.125 µg/mL	0.807
[7], first compound 0.78 µg/mL, partner 0.25 µg/mL	0.978
[7], first compound 1.56 µg/mL, partner 0.0625 µg/mL	0.998
[7], first compound 1.56 µg/mL, partner 0.125 µg/mL	≥ 1
[7], first compound 1.56 µg/mL, partner 0.25 µg/mL	0.98

one replicate
Settings	fitness
[1], first compound 1 µg/mL, partner 0.15 µg/mL	≥ 1
[1], first compound 1 µg/mL, partner 0.3 µg/mL	≥ 1
[1], first compound 2 µg/mL, partner 0.15 µg/mL	≥ 1
[1], first compound 2 µg/mL, partner 0.3 µg/mL	0.983
[1], first compound 4 µg/mL, partner 0.15 µg/mL	0.981
[1], first compound 4 µg/mL, partner 0.3 µg/mL	0.948
[2], first compound 0.39 µg/mL, partner 0.5 µg/mL	0.877
[2], first compound 0.39 µg/mL, partner 1 µg/mL	≥ 1
[2], first compound 0.39 µg/mL, partner 2 µg/mL	0.907
[2], first compound 0.78 µg/mL, partner 0.5 µg/mL	0.948
[2], first compound 0.78 µg/mL, partner 1 µg/mL	0.988
[2], first compound 0.78 µg/mL, partner 2 µg/mL	0.87
[2], first compound 1.56 µg/mL, partner 0.5 µg/mL	0.942
[2], first compound 1.56 µg/mL, partner 1 µg/mL	≥ 1
[2], first compound 1.56 µg/mL, partner 2 µg/mL	0.919
[7], first compound 0.39 µg/mL, partner 0.5 µg/mL	0.858
[7], first compound 0.39 µg/mL, partner 1 µg/mL	0.798
[7], first compound 0.78 µg/mL, partner 0.5 µg/mL	0.924
[7], first compound 0.78 µg/mL, partner 1 µg/mL	0.917
[7], first compound 1.56 µg/mL, partner 0.5 µg/mL	0.939
[7], first compound 1.56 µg/mL, partner 1 µg/mL	0.941
[7], first compound 3.12 µg/mL, partner 0.0625 µg/mL	0.99
[7], first compound 3.12 µg/mL, partner 0.125 µg/mL	0.996
[7], first compound 3.12 µg/mL, partner 0.25 µg/mL	0.931
[7], first compound 6.24 µg/mL, partner 0.0625 µg/mL	0.67
[7], first compound 6.24 µg/mL, partner 0.125 µg/mL	0.706
[7], first compound 6.24 µg/mL, partner 0.25 µg/mL	0.851

Settings	Bliss interaction score
[8]	0.0535
[9]	0.0811
[10]	0.0808
[11]	0.0481
